Data as given in patent US10106817B2, “Compositions and methods of use thereof for identifying anti-viral agents” (priority 2013, dated 2018).
Entries after “also recorded” stand apart in the source; their conditions may differ.

Columns and labels:
Format in all cases: cell-based
IE2 = assay: Quantitative Western blot of IE2 expression during CMV infection; details: pre-treatment with activator vs untreated control
Experimental: (§1) MRC5 fibroblasts and life-extended human foreskin fibroblasts (HFFs) (Bresnahan and Shenk, 2000) were maintained in Dulbecco's Modified Eagle's Medium (DMEM) supplemented with 10% fetal bovine serum (FBS) and 50 U/ml penicillin-streptomycin at 37° C. and 5% CO2 in a humidified incubator. ARPE-19 cells were maintained in a 1:1 mixture of DMEM/F-12 (Mediatech Inc.) with 10% FBS (HyClone) and 50 U/ml Penicillin-Streptomycin (Mediatech Inc.). Cells were pretreated in a final concentration of 1 mM VPA (Calbiochem).
MRC5s at ˜60% confluency were infected at MOI=1. To synchronize viral entry, adsorption was done at 4° C. for 30 min., cells washed once in PBS (Mediatech, Inc.), fresh media added, and cells placed at a 37° C. in a humidified CO2 incubator. Time points were collected every 1-2 hrs for 20-24 hrs as indicated. Sample collection, protein transfer, and blot preparation were as previously described (Bolovan-Fritts et al., 2004) and samples were loaded and separated on precast SDS PAGE 10% or 7.5% bisacrylamide gels (BioRad).
For quantitative IE2 detection, the 1° antibody MAB810 (Millipore) was used at 1:100 and 2° antibody 926-32212 (LI-COR™) was used at a dilution of 1:20,000. For normalization, anti-beta tubulin antibody 26-42211 (LI-COR™) used at a dilution of 1:2000 followed by 2′ antibody 926-68073 (LI-COR™) at a dilution of 1:20,000. Blots were scanned and quantified on a LI-COR™ Odyssey™ according to manufacturer's protocols.

IE2-YFP = assay: Single-cell time-lapse fluorescence microscopy of IE2-YFP levels, CMV IE2-YFP virus; details: pretreatment with activator vs untreated control
Experimental: as §1
Life-extended HFFs and PML knockdown HFFs (a gift from Roger Everett) were passed onto a 96-well glass-bottom plate (Thermo Fisher Scientific) and grown to confluency to hold cells in the G0. Cells were synchronously infected on ice for 30 mins at MOI=1 (infection with mutant was done at room temperature). Live cells were imaged using a 20× oil objective on a spinning-disk confocal microscope (Olympus DSU™) equipped with a 37° C., humidified, 5% CO2 live-cell chamber. Image collection began when YFP signal was first detected and frames were captured every 10 minutes for 16-24 hours using an exposure time between 200 and 800 msec. Single-cell tracking and segmentation were performed with custom-written code in MatLab™ (Mathworks) as previously described (Weinberger et al., 2008). Homo-FRET imaging was performed as previously described (Weinberger and Shenk, 2007).

CMV IE2-YFP virus = assay: Viral replication kinetics (titer), CMV IE2-YFP virus; details: for replication fitness of the parent virus (toxicity of exposure alone): VPA or TSA exposure
Experimental: as §1
(§2) Confluent MRC5 monolayers at ˜5×10^4 cells per well were infected at indicated MOIs using 0.45 μm pre-filtered virus inoculum stocks diluted in culture media. Inoculums were calculated based on plaque-assay titrations (Bolovan-Fritts and Wiedeman, 2001), shown as time point 0 in each figure. Inoculum was then removed and replaced with 1 mL fresh media. Infected wells were collected in triplicate at indicated time points and stored at −80° C. To measure replication, samples were thawed and prepared as a 10-fold serial-dilution series in culture media, analyzed by TCID50, then converted to PFU/ml. Error ranges were calculated by standard deviation.

[1] = system: MIEP-GFP control cells (MIEP-mCherry-IRES-GFP circuit, ARPE-19); assay: Flow cytometry of GFP in non-feedback MIEP-GFP control cells; details: for GFP median fluorescence intensity: 10 ng/ml TNF-α, 400 nM TSA, or 1 mM VPA
Excerpt: (§3) Mathematica™ (Wolfram Research) was used for closed-loop analysis. Standard lentiviral cloning was used to create minimal MIE circuits (Dull et al., 1998). The minimal MIEP-IE2-GFP and MIEP-GFP circuits are driven by a full-length ˜2.5 kb MIE promoter-enhancer (MIEP) that spans the sequence from the MIEP modulator at the 5′ edge to the junction of IE exons 1 and 2. The MIEP was PCR-cloned from AD169 into pLEIGW (a gift from Thor Lemishka) in place of the EF1a promoter. This full-length MIEP drives an IE2-IRES-GFP or mCherry-IRES-GFP cassette. IE2 was cloned from pRSV-IE86 (a gift from Jay Nelson). ARPE-19 cells were infected and FACS sorted for GFP to create stably expressing cell lines. Cells were treated with TSA for 17 hours, and GFP expression was quantified by flow cytometry. Live cells were gated by forward-versus-side scattering on a FacsCalibur™ cytometer (BD Biosciences) and mean fluorescence intensity recorded. At least 20,000 live cells were recorded for each experiment and data was analyzed in FlowJo™ (Treestar Inc.).
Cell lines (ARPE-19 cells) expressing IE2-GFP from MIE promoter (MIEP) (referred to as “MIEP-IE2-GFP cells”) were tested, in comparison to a cell line expressing MIEP-GFP control (referred to as “MIEP-GFP control cells). MIEP-IE2-GFP cells and MIEP-GFP control cells were treated with 10 ng/ml TNF-α, 400 nM TSA, or 1 mM VPA in MIEP-IE2-GFP cells. The data are depicted in FIG. 33.

[2] = system: MIEP-IE2-GFP cells (MIEP-IE2-IRES-GFP circuit, ARPE-19); assay: Flow cytometry of GFP in negative-feedback MIEP-IE2-GFP cells; details: different levels of activation by TSA treatment, 17 hours
Excerpt: as §3
Cell lines (ARPE-19 cells) expressing IE2-GFP from MIE promoter (MIEP) (referred to as “MIEP-IE2-GFP cells”) were tested, in comparison to a cell line expressing MIEP-GFP control (referred to as “MIEP-GFP control cells). MIEP-IE2-GFP cells and MIEP-GFP control cells were treated with 10 ng/ml TNF-α, 400 nM TSA, or 1 mM VPA in MIEP-IE2-GFP cells. […]

[3] = system: cells expressing the wild-type accelerator circuit MIEP-IE2-IRES-GFP; assay: Percentage of live cells by flow cytometry, wild-type accelerator circuit cells; details: after 14 days of TSA treatment
Experimental: (§4) MIEPΔcrs-IE2-GFP was constructed by PCR cloning MIEPΔcrs from the CMV Δcrs IE2-YFP bacmid and inserted into MIEP-IE2-GFP. ARPE-19 cells were transduced with the MIEP-IE2-GFP and MIEPΔcrs-IE2-GFP vectors and FACS sorted for GFP. The transduced cell lines were allowed to recover for 24 hours before the percentage of GFP-expressing cells for each cell line was quantified. Live cells were gated by forward versus side scattering on a FacsCalibur cytometer. On the first day after recovery, 2,500 GFP events were recorded. Subsequently, at least 10,000 GFP events were recorded for each experiment and analyzed using FlowJo™. For genomic PCR, genomic DNA was purified using a NucleoSpin Tissue kit (Clontech).

[4] = system: cells expressing the mutant amplifier circuit MIEPΔcrs-IE2-IRES-GFP; details: after 14 days of TSA treatment
Experimental: as §4

[5] = system: low-passage clinical CMV isolate TB40-E; assay: Viral replication (titer), clinical isolate TB40-E
Experimental: as §2

CMV Δcrs mutant virus = assay: Replicative fitness of the CMV Δcrs mutant virus (PFU/ml); details: 72-hour VPA treatment, PFU/ml on day 10 after infection at MOI=1
Experimental: The CMV GFP control virus (Yu et al., 2003) encodes an SV40 promoter-EGFP cassette. The CMV […] IE2-YFP virus was constructed from the CMV IE2-YFP background as described (Cuevas-Bennett and Shenk, 2008). Viral stocks were titered by TCID50 (Nevels et al., 2004). To verify the integrity of the CMV Δcrs IE2-YFP virus, a rescue virus, CMV ΔcrsREVERT IE2-YFP, was constructed by homologous recombination, whereby CMV Δcrs IE2-YFP BAC DNA (20 μg) and a ˜2.5 kb wild-type MIEP DNA fragment (2.5 μg) were co-transfected by electroporation into 10^6 MRC5 cells, and subjected to two rounds of plaque purification.
as §2

Compound | IE2 protein levels (amplification) (IE2) | rate of IE2 expression (acceleration) (IE2) | rate of IE2 expression in single cells (time to steady-state) (IE2-YFP) | steady-state IE2 levels in single cells (IE2-YFP) | replication fitness of the parent virus (toxicity of exposure alone) (CMV IE2-YFP virus) | GFP median fluorescence intensity [1] | GFP steady-state level as a function of activation (closed-loop dose-response) ([1]; different levels of activation by TSA treatment, 17 hours) | GFP steady-state level as a function of activation (closed-loop dose-response) [2] | viability (percentage of live cells) [3] | viability (percentage of live cells) [4] | increase in viral replication compared to the untreated control (CMV IE2-YFP virus; 72-hour VPA pre-treatment, after the first round of viral maturation (~96 hours), MOI=1) | increase in titer [5] | replication of the mutant amplifier virus (CMV Δcrs mutant virus)
CC(/C=C/C(=O)NO)=C\[C@@H](C)C(=O)c1ccc(N(C)C)cc1 [TSA, Trichostatin A] | do not amplify IE2 protein levels | accelerate IE2 expression | significantly accelerates IE2 expression in single cells | does not amplify steady-state IE2 levels | neither activator reduces replication fitness | significantly increased | linear increase in final level | saturation in steady-state level | little effect on viability | significantly decreased viability | – | – | –
CCCC(CCC)C(=O)O [VPA, Valproic Acid] | do not amplify IE2 protein levels; also recorded: no amplification in IE2 levels | accelerate IE2 expression; also recorded: acceleration | significantly accelerates IE2 expression in single cells; also recorded: decreases time to steady-state | does not amplify steady-state IE2 levels; also recorded: without increasing steady-state IE2-YFP levels | neither activator reduces replication fitness | significantly increased | – | – | – | – | approximately five | nine | Decreased replication
Tumor Necrosis Factor Alpha [TNF-α] | do not amplify IE2 protein levels | accelerate IE2 expression | significantly accelerates IE2 expression in single cells | does not amplify steady-state IE2 levels | – | significantly increased | – | – | – | – | – | – | –
